Patent US9150560B2, “Inhibitors of histone deacetylase” (Janssen Pharmaceutica, N.V., priority 2002, dated 2015)
Read-outs that look alike come from different tables or passages of the source.

Experiments:
[1] = target: histone deacetylase (HDAC), HeLa nuclear extracts; assay: In vitro assay for inhibition of histone deacetylase; format: biochemical; design: key: pIC50 = negative log of IC50; conditions: [3H]acetylated histone H4 peptide substrate, 30 min
Description: The in vitro assay for inhibition of histone deacetylase (see example C.1) measures the inhibition of HDAC enzymatic activity obtained with the compounds of formula (I).
HeLa nuclear extracts (supplier: Biomol) were incubated at 60 μg/ml with 2×10^−8 M of radiolabeled peptide substrate. As a substrate for measuring HDAC activity a synthetic peptide, i.e. the amino acids 14-21 of histone H4, was used. The substrate is biotinylated at the NH2-terminal part with a 6-aminohexanoic acid spacer, and is protected at the COOH-terminal part by an amide group and specifically [^3H]acetylated at lysine 16. The substrate, biotin-(6-aminohexanoic)Gly-Ala-([^3H]-acetyl-Lys-Arg-His-Arg-Lys-Val-NH2), was added in a buffer containing 25 mM Hepes, 1 M sucrose, 0.1 mg/ml BSA and 0.01% Triton X-100 at pH 7.4. After 30 min the deacetylation reaction was terminated by the addition of HCl and acetic acid. (final concentration 0.035 mM and 3.8 mM respectively). After stopping the reaction, the free ^3H-acetate was extracted with ethylacetate. After mixing and centrifugation, the radioactivity in an aliquot of the upper (organic) phase was counted in a β-counter.
For each experiment, controls (containing HeLa nuclear extract and DMSO without compound), a blank incubation (containing DMSO but no HeLa nuclear extract or compound) and samples (containing compound dissolved in DMSO and HeLa nuclear extract) were run in parallel. In first instance, compounds were tested at a concentration of 10^−5M. […] In each test the blank value was substracted from both the control and the sample values. The control sample represented 100% of substrate deactylation. For each sample the radioactivity was expressed as a percentage of the mean value of the controls. […] Herein the effects of test compounds are expressed as pIC50 (the negative log value of the IC50-value).

[2] = system: A2780 ovarian carcinoma cells; assay: Determination of antiproliferative activity on A2780 cells (MTT); format: cell-based, human; conditions: four days of incubation; for IC50: Homo sapiens, 96 h, read-out: Cellular activity pIC50 (converted)
Description: Cellular activity of the compounds of formula (I) was determined on A2780 tumour cells using a colorimetric assay for cell toxicity or survival (Mosmann Tim, Journal of Immunological Methods 65: 55-63, 1983)(see example C.2).
All compounds tested were dissolved in DMSO and further dilutions were made in culture medium. Final DMSO concentrations never exceeded 0.1% (v/v) in cell proliferation assays. Controls contained A2780 cells and DMSO without compound and blanks contained DMSO but no cells. MTT was dissolved at 5 mg/ml in PBS. A glycine buffer comprised of 0.1 M glycine and 0.1 M NaCl buffered to pH 10.5 with NaOH (1 N) was prepared (all reagents were from Merck).
The human A2780 ovarian carcinoma cells (a kind gift from Dr. T. C. Hamilton [Fox Chase Cancer Centre, Pennsylvania, USA]) were cultured in RPMI 1640 medium supplemented with 2 mM L-glutamine, 50 μg/ml gentamicin and 10% fetal calf serum. Cells were routinely kept as monolayer cultures at 37° C. in a humidified 5% CO2 atmosphere. Cells were passaged once a week using a trypsin/EDTA solution at a split ratio of 1:40. All media and supplements were obtained from Life Technologies. Cells were free of mycoplasma contamination as determined using the Gen-Probe Mycoplasma Tissue Culture kit (supplier: BioMérieux).
Cells were seeded in NUNC™ 96-well culture plates (Supplier: Life Technologies) and allowed to adhere to the plastic overnight. Densities used for plating were 1500 cells per well in a total volume of 200 μl medium. After cell adhesion to the plates, medium was changed and drugs and/or solvents were added to a final volume of 200 μl. Following four days of incubation, medium was replaced by 200 μl fresh medium and cell density and viability was assessed using an MTT-based assay. To each well, 25 μl MTT solution was added and the cells were further incubated for 2 hours at 37° C. The medium was then carefully aspirated and the blue MTT-formazan product was solubilized by addition of 25 μl glycine buffer followed by 100 μl of DMSO. […] Within an experiment, the results for each experimental condition are the mean of 3 replicate wells. For initial screening purposes, compounds were tested at a single fixed concentration of 10^−6M. For active compounds, the experiments were repeated to establish full concentration-response curves. For each experiment, controls (containing no drug) and a blank incubation (containing no cells or drugs) were run in parallel. The blank value was subtracted from all control and sample values. For each sample, the mean value for cell growth (in absorbance units) was expressed as a percentage of the mean value for cell growth of the control. […] Herein the effects of test compounds are expressed as pIC50 (the negative log value of the IC50-value).

[3] = Kinetic solubility in aqueous media (nephelometry); format: physicochemical; conditions: phosphate citrate buffer pH 7.4, turbidity of three dilution steps
Description: Kinetic solubility in aqueous media measures the ability of a compound to stay in aqueous solution upon dilution (see example C.3).
DMSO-stock solutions are diluted with a single aqueous buffer solvent in 3 consecutive steps. For every dilution turbidity is measured with a nephelometer.
In the first dilution step, 10 μl of a concentrated stock-solution of the active compound, solubilized in DMSO (5 mM), was added to 100 μl phosphate citrate buffer pH 7.4 and mixed. In the second dilution step, an aliquot (20 μl) of the first dilution step was further dispensed in 100 μl phosphate citrate buffer pH 7.4 and mixed. Finally, in the third dilution step, a sample (20 μl) of the second dilution step was further diluted in 100 μl phosphate citrate buffer pH 7.4 and mixed. All dilutions were performed in 96-well plates. Immediately after the last dilution step the turbidity of the three consecutive dilution steps were measured with a nephelometer. Dilution was done in triplicate for each compound to exclude occasional errors. Based on the turbidity measurements a ranking is performed into 3 classes. Compounds with high solubility obtained a score of 3 and for this compounds the first dilution is clear. Compounds with medium solubility obtained a score of 2. For these compounds the first dilution is unclear and the second dilution is clear. […] The solubility of 9 compounds was measured.

[4] = not given; remark: listed apart in the source

Compound	% metabolism (human, 15 min, 5 μM)	Enzyme activity pIC50 [1]	IC50 [2]	Solubility Score [3]	melting point [4]	Cellular activity pIC50 [2]	% metabolism (15 min incubation, compound 5 μM, microsomes 1 mg/ml, NADPH-generating system)
COc1cc(N)c(Cl)cc1C(=O)NC1CCN(CCCOc2ccc(F)cc2)CC1OC (stereo not shown) [Cisapride]	45%	–	–	–	–	–	–
O=C(CS)Nc1ccc(N2CCC3(CC2)C(=O)NCN3c2ccccc2)cc1 [Co. No. 1]	–	<5	> 10000 nM	1 (Compounds with low solubility obtained a score of 1 and for these compounds both the first and the second dilution are unclear)	–	–	–
CN(C)S(=O)(=O)N1CCN(c2ncc(C(=O)NO)cn2)CC1 [Co. No. 2]	–	6.615	2920 nM	3 (Compounds with high solubility obtained a score of 3 and for this compounds the first dilution is clear)	> 260 °C	–	–
NS(=O)(=O)N1CCN(c2ncc(C(=O)NO)cn2)CC1 [Co. No. 3]	–	6.881	> 10000 nM	3 (Compounds with high solubility obtained a score of 3 and for this compounds the first dilution is clear)	212 °C	–	–
CN(C)S(=O)(=O)NCC1CCN(c2ncc(C(=O)NO)cn2)CC1 [Co. No. 4]	–	7.27	2960 nM	3 (Compounds with high solubility obtained a score of 3 and for this compounds the first dilution is clear)	182 °C	–	–
O=C(NO)c1cnc(N2CCN(C(=O)C(c3ccccc3)c3ccccc3)CC2)nc1 [Co. No. 5]	–	7.096	659 nM	–	–	–	–
O=C(NO)c1cnc(N2CCN(C(=O)c3ccc4ccccc4c3)CC2)nc1 [Co. No. 6]	–	7.104	1490 nM	3 (Compounds with high solubility obtained a score of 3 and for this compounds the first dilution is clear)	130 °C	–	–
CCCCCCCCS(=O)(=O)N1CCN(c2ccc(C(=O)NO)cc2)CC1 [compound 18]	–	6.173	–	1 (Compounds with low solubility obtained a score of 1 and for these compounds both the first and the second dilution are unclear)	–	6.166	–
O=C(NO)c1cnc(N2CCN(C(=O)c3cccc4ccccc34)CC2)nc1 [compound 24]	–	7.073	–	–	–	6.084	–
CCCO [propanol]	–	–	–	–	–	–	25%
